Assay results from ChEMBL document CHEMBL3091347, “Comparison of Multiple Linear Regressions and Neural Networks based QSAR models for the design of new antitubercular compounds” (Eur J Med Chem, 2013).
≈ marks a conversion by molar mass, not a printed value.

What was measured:
[1] = system: Mycobacterium tuberculosis; experiment: Antitubercular activity against Mycobacterium tuberculosis BCG; type: functional
[2] = Lipophilicity, log P of the compound; conditions: octanol/water
[3] = system: Mycobacterium tuberculosis; experiment: Antitubercular activity against Mycobacterium tuberculosis; type: functional

Structure (SMILES)	MIC [1] [µg/mL]	log(1/MIC) [1]	logP ([2]; logP)	logP [2]	log(1/MIC) [3]	MIC ([3]; Mycobacterium tuberculosis) [µg/mL]
NNC(=O)c1ccncn1	20 (≈ 145 µM)	-1.301	-2.87	–	–	–
NNC(=O)c1ccc([N+](=O)[O-])cc1	12 (≈ 66.2 µM)	-1.079	-1.1	–	–	–
NNC(=O)/C=C/c1ccccc1	0.4 (≈ 2.47 µM)	0.3979	-1.23	–	–	–
NNC(=O)C1CCNCC1	600 (≈ 4190 µM)	-2.778	-3.46	–	–	–
NNC(=O)c1ccc(O)cc1	12 (≈ 78.9 µM)	-1.079	–	-1.51	–	–
NNC(=O)c1ccc(Br)cc1	12 (≈ 55.8 µM)	-1.079	0.018	–	–	–
COc1cc(C(=O)NN)ccc1O	30 (≈ 165 µM)	-1.477	-1.79	–	–	–
NNC(=O)c1cccc(N)c1	3 (≈ 19.8 µM)	-0.4771	-2.07	–	–	–
NNC(=O)c1ccncc1N	1.5 (≈ 9.86 µM)	-0.1761	-3.12	–	–	–
NNC(=O)c1ccc(Cl)cc1	3 (≈ 17.6 µM)	-0.4771	–	-0.132	–	–
NNC(=O)c1ccccc1N	30 (≈ 198 µM)	-1.477	-2.07	–	–	–
NNC(=O)Cc1ccncc1	100 (≈ 662 µM)	-2	-2.69	–	–	–
Cc1ccc(C)n1NC(=O)c1ccco1	15 (≈ 73.4 µM)	-1.176	3.04	–	–	–
O=C(NNS(=O)(=O)c1ccc([N+](=O)[O-])cc1)c1ccncc1	60 (≈ 186 µM)	-1.778	-1.54	–	–	–
O=C(NNS(=O)(=O)c1ccccc1)c1ccncc1	3 (≈ 10.8 µM)	-0.4771	-1.29	–	–	–
COc1ccc(C(=O)NN)cc1	8 (≈ 48.1 µM)	-0.9031	–	–	–	–
Cc1ccc(C)n1NC(=O)c1cccs1	40 (≈ 182 µM)	-1.602	1.98	–	–	–
NNC(=O)c1nc2ccccc2s1	8 (≈ 41.4 µM)	-0.9031	-1.08	–	–	–
NNC(=O)c1ccc(N)cc1	6 (≈ 39.7 µM)	-0.7782	–	-2.07	–	–
Cc1c(C(=O)NN)sc(C(=O)NN)c1C	30 (≈ 131 µM)	-1.477	–	-2.888	–	–
O=C(NNC(=O)c1ccncc1)c1ccncc1	8 (≈ 33 µM)	-0.9031	–	-2.984	–	–
CC(C)N(N)C(=O)c1ccco1	15 (≈ 89.2 µM)	-1.176	0.115	–	–	–

Structure (SMILES)	MIC [1] [µg/mL]	log(1/MIC) [1]	logP ([2]; logP)	logP [2]	log(1/MIC) [3]	MIC ([3]; Mycobacterium tuberculosis) [µg/mL]
CCCCC/C(C)=N\NC(=O)c1cccs1	3 (≈ 12.6 µM)	-0.4771	1.71	–	–	–
O=C(NN=C1CCCCC1)c1cccs1	3 (≈ 13.5 µM)	-0.4771	0.789	–	–	–
CC(C)(C#N)NNC(=O)c1cccs1	3 (≈ 14.3 µM)	-0.4771	0.147	–	–	–
O=C(N/N=C/C(O)C(O)C(O)C(O)CO)c1cccs1 (configuration not stated)	0.6 (≈ 1.97 µM)	0.2218	–	-4.917	–	–
CNC1C(OC2C(OC3C(O)C(O)C(NC(=N)N)C(O)C3NC(=N)N)OC(C)C2(O)/C=N/NC(=O)c2cccs2)OC(CO)C(O)C1O (configuration not stated)	0.25 (≈ 0.354 µM)	0.6021	–	–	–	–
NNC(=O)c1ccc[nH]1	60 (≈ 479 µM)	-1.778	-1.99	–	–	–
NNC(=O)Cc1cc2ccccc2[nH]1	60 (≈ 317 µM)	-1.778	-1.61	–	–	–
NNC(=O)c1nc2ccccc2[nH]1	15 (≈ 85.1 µM)	-1.176	-1.73	–	–	–
NNC(=O)c1nccnc1C(=O)NN	15 (≈ 76.5 µM)	-1.176	–	-5.666	–	–
NNC(=O)c1cnc(N)s1	6 (≈ 37.9 µM)	-0.7782	-2.78	–	–	–
NNC(=O)c1csc(N)n1	3 (≈ 19 µM)	-0.4771	-2.69	–	–	–
NNC(=O)c1ccc(Br)o1	12 (≈ 58.5 µM)	-1.079	1.62	–	–	–
NNC(=O)c1ccc(C(=O)NN)o1	6 (≈ 32.6 µM)	-0.7782	-1.63	–	–	–
NNC(=O)/C=C/c1ccco1	3 (≈ 19.7 µM)	-0.4771	-2.02	–	–	–
CC(C)(C#N)NNC(=O)c1ccco1	3 (≈ 15.5 µM)	-0.4771	1.21	–	–	–
CC(C)=NNC(=O)c1ccco1	4 (≈ 24.1 µM)	-0.6021	0.656	–	–	–
CC(=O)Nc1ccc(/C=N\NC(=O)c2ccco2)cc1	4.5 (≈ 16.6 µM)	-0.6532	2.64	–	–	–
CC(=O)NNC(=O)c1ccco1	–	–	-1.26	–	-2.78	600 (≈ 3570 µM)
NNC(=O)c1cc2ccccc2o1	2 (≈ 11.4 µM)	-0.301	0.835	–	–	–
NNC(=O)c1ccsc1	8 (≈ 56.3 µM)	-0.9031	-1.2	–	–	–
NNC(=O)Cc1ccsc1	100 (≈ 640 µM)	-2	-1.57	–	–	–
